From patent publication US5474988A, “5-phenylpyrrolo-1,4-benzoxazine and 5-phenylpyrrolo-1,4-benzothiazine compounds, process and intermediates for their production and pharmaceutical compositions containing them” (Kali-Chemie Pharma GmbH, priority 1993, dated 1995)

What was measured:
[1] = system: P.A.F.-induced aggregation of blood platelets; assay: anti-P.A.F. action in vitro (P.A.F.-induced platelet aggregation); format: cell-based; conditions: Oryctolagus cuniculus, 10^-5 mole/liter, read-out: Anti-P.A.F. activity in vitro, % inhibition of the P.A.F.-induced aggregation of blood platelets from rabbit blood
Method in brief: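 Washed rabbit platelets (4×10^9/ml stock suspension, aspirin-lysine treated) in modified Tyrode buffer pH 7.4 with 1.3 mM CaCl2 and gelatine; test substance at 10^-5 mol/l final, 90 s preincubation before P.A.F. Aggregation followed 4-5 min by aggregometer; % inhibition of P.A.F.-induced aggregation increase calculated.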

[2] = system: 5-lipoxygenase; assay: inhibition of 5-lipoxygenase activity in polymorphonuclear rat leucocytes (LTB4 formation); format: cell-based; conditions: 10^-5 mol/l; 22° C.
Method in brief: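 Thioglycolate-elicited peritoneal PMNs from male Sprague-Dawley rats (0.5×10^6 cells) preincubated 15 min at 22 °C with 10 μM compound in HEPES-buffered HBSS, then stimulated with 5 μM calcimycin for 10 min. LTB4 quantified by reverse-phase HPLC at 270 nm; % inhibition versus solvent control.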

Structure (SMILES) | inhibition at 10 µM [1] | In vitro inhibitory activity on LTB4 formation in rat PMNs stimulated by calcium ionophore A23187 [2]
COc1ccc2c3c1c(C)c(-c1ccc(O)cc1)n3CC(CCN1CCN(c3cc(C)ccn3)CC1)O2 (centres unmarked) [Example 3, 2,3-Dihydro-5-(4-hydroxyphenyl)-7-methoxy-6-methyl-2-[2-(4-(4-methylpyridin-2-yl)piperazin-1-yl)ethyl]pyrrolo[1,2,3-de]-1,4-benzoxazine] | 92% | 96%
Cc1ccnc(N2CCN(CCC3Cn4c(-c5ccc(O)cc5)c(C)c5c(O)ccc(c54)O3)CC2)c1 (centres unmarked) [Example 4, 2,3-Dihydro-7-hydroxy-5-(4-hydroxyphenyl)-6-methyl-2-[2-(4-(4-methylpyridin-2-yl)piperazin-1-yl)ethyl]pyrrolo[1,2,3-de]-1,4-benzoxazine] | 99% | 100%
Cc1ccnc(N2CCN(C(=O)CCCC3Cn4c(-c5cc(C)c(O)c(C)c5)c(C)c5cccc(c54)O3)CC2)c1 (centres unmarked) [Example 9, 2,3-Dihydro-5-(3,5-dimethyl-4-hydroxyphenyl)-6-methyl-2-[4-(4-(4-methylpyridin-2-yl)piperazin-1-yl)-4-oxobutyl]-pyrrolo[1,2,3-de]-1,4-benzoxazine] | 67% | 86%
COc1cc(-c2c(C)c3cccc4c3n2CC(CCN2CCN(c3cc(C)ccn3)CC2)O4)ccc1O (centres unmarked) [Example 12] | 93% | 100%
Cc1ccnc(N2CCN(CCC3Cn4c(-c5ccc(O)c(O)c5)c(C)c5cccc(c54)O3)CC2)c1 (centres unmarked) [Example 13] | 94% | 98%
Cc1ccnc(N2CCN(C(=O)CCC3Cn4c(-c5ccc(O)cc5)c(C)c5cccc(c54)O3)CC2)c1 (centres unmarked) [Example 15] | 100% | 94%
Cc1ccnc(N2CCN(CCC3Cn4c(-c5cc(C)c(O)c(C)c5)c(C)c5cccc(c54)O3)CC2)c1 (centres unmarked) [Example 20] | 92% | 75%
Cc1cc(-c2c(C)c3cccc4c3n2CC(CCCC(=O)N2CCN(c3ccccn3)CC2)O4)cc(C)c1O (centres unmarked) [Example 23] | 66% | 92%
Cc1ccnc(N2CCN(C(=O)CCC3Cn4c(-c5cc(C)c(O)c(C)c5)c(C)c5cccc(c54)O3)CC2)c1 (centres unmarked) [Example 25] | 91% | –
Cc1cc(-c2c(C)c3cccc4c3n2CC(CCC(=O)N2CCN(c3ccccn3)CC2)O4)cc(C)c1O (centres unmarked) [Example 26] | 82% | 67%
Cc1cc(-c2c(C)c3c(F)ccc4c3n2CC(CCN2CCN(c3ccccn3)CC2)O4)cc(C)c1O (centres unmarked) [Example 27] | – | 90%
Cc1ccnc(N2CCN(CCC3Cn4c(-c5cc(C)c(O)c(C)c5)c(C)c5c(F)ccc(c54)O3)CC2)c1 (centres unmarked) [Example 28] | 83% | 48%
Cc1ccnc(N2CCN(CCCC3Cn4c(-c5cc(C)c(O)c(C)c5)c(C)c5c(F)ccc(c54)O3)CC2)c1 (centres unmarked) [Example 29] | 50% | –
Cc1ccc(N2CCN(C(=O)CCC3Cn4c(-c5ccc(O)cc5)c(C)c5cccc(c54)O3)CC2)nc1 (centres unmarked) [Example 34] | 77% | 95%
COc1cc(-c2c(C)c3cccc4c3n2CC(CCC(=O)N2CCN(c3ccc(C)cn3)CC2)O4)ccc1O (centres unmarked) [Example 39] | – | 98%
Cc1ccnc(N2CCN(CCC3Cn4c(-c5cc(C)c(O)c(C)c5)c(C)c5cc(F)cc(c54)O3)CC2)c1 (centres unmarked) [Example 42] | 40% | –
COc1cc2c3c(c1)c(C)c(-c1cc(C)c(O)c(C)c1)n3CC(CCN1CCN(c3cc(C)ccn3)CC1)O2 (centres unmarked) [Example 43] | 95% | 66%
Cc1ccnc(N2CCN(CCC3Cn4c(-c5cc(C)c(O)c(C)c5)c(C)c5cc(O)cc(c54)O3)CC2)c1 (centres unmarked) [Example 44] | 99% | 100%
Cc1cc(-c2c(C)c3cccc4c3n2CC(CCCCN2CCN(c3ccccn3)CC2)O4)cc(C)c1O (centres unmarked) [Example 65] | 52% | 64%
Cc1ccnc(N2CCN(C(=O)CCC3Cn4c(-c5cc(C)c(O)c(C)c5)c(C)c5c(O)ccc(c54)O3)CC2)c1 (centres unmarked) [Example 67] | 97% | 100%
Cc1ccnc(N2CCN(C(=O)CCC3Cn4c(-c5ccc(O)cc5)c(C)c5c(O)ccc(c54)O3)CC2)c1 (centres unmarked) [Example 69] | 97% | 100%
Cc1cc(-c2c(C)c3c(O)ccc4c3n2CC(CCC(=O)N2CCN(c3ccccn3)CC2)O4)cc(C)c1O (centres unmarked) [Example 71] | 84% | 100%
COc1cc(-c2c(C)c3c(O)ccc4c3n2CC(CCC(=O)N2CCN(c3ccccn3)CC2)O4)cc(C)c1O (centres unmarked) [Example 72] | 79% | 100%
Cc1ccnc(N2CCN(CCCC3Cn4c(-c5cc(C)c(O)c(C)c5)c(C)c5c(O)ccc(c54)O3)CC2)c1 (centres unmarked) [Example 73] | – | 100%
Cc1cccnc1N1CCN(CCCC2Cn3c(-c4cc(C)c(O)c(C)c4)c(C)c4c(O)ccc(c43)O2)CC1 (centres unmarked) [Example 74] | – | 100%
Cc1cc(-c2c(C)c3c(OCc4ccccc4)ccc4c3n2CC(CCC(=O)N2CCN(c3ccccn3)CC2)O4)cc(C)c1O (centres unmarked) [Example 75] | – | 51%
